In patent US20100278687A1, “R[…] GYPSUM BOARD USING GASEOUS CHLORINE DIOXIDE” (SABRE INTELLECTUAL PROPERTY HOLDINGS COMPANY, LLC., priority 2009, published 2010):

Assays:
[1] = test system: sulfate-reducing bacteria (SRBs); assay: SRB growth test (presence/absence) on unpainted wallboard paper before and after ClO2 fumigation of a house; assay type: cell-based; conditions: 20 wall and ceiling cavity locations, 12 of 20 positive before treatment; 13 hours, CT 5336-9727 ppmv-hours, about 45-52% RH
Procedure: SRBs—The efficacy of ClO2 gas in eliminating SRBs from Chinese wallboard material was evaluated by collecting samples of unpainted wallboard paper located inside wall cavities of the home prior to, and immediately after, ClO2 exposure. Unpainted wallboard paper from wall cavities was chosen for SRB testing because preliminary laboratory work done at Sabre's Slingerlands, N.Y. laboratory facility had shown SRBs to be concentrated in this media.
Pre-treatment wallboard paper samples were collected by drilling a two-inch circular core at selected wall and ceiling locations. To avoid damaging vapor barriers present within the home, samples were not collected from any bathroom or laundry room locations. Sample locations were selected to be representative wall cavities within the structure most likely to contain conditions conducive to SRB growth. In total, 20 sample locations were selected. Nine were wall cores and eleven were ceiling cores.
The wallboard holes created through SRB sampling were each sealed using a two-inch rubber expansion plug in order to ensure that ClO2 gas would not penetrate into wall cavities as a consequence of sampling activities.
Post-treatment wallboard paper samples were collected by drilling an identical two-inch circular core approximately one inch away from each of the 20 pre-treatment sample locations. […]

[2] = test system: Bacillus atrophaeus spores; assay: BI spore strip viability test, strips inside wall cavities during ClO2 fumigation; assay type: cell-based; conditions: Bacillus atrophaeus spore strips in wall cavities; incubated seven days; both positive controls grew
Source text: BI Spore Strips—BI spore strips, each containing an approximate 2.5×103 titer of B. atrophaeus spores, were placed within wall cavities of the structure at the same 20 locations where wallboard samples had been collected, prior to insertion of the 2-inch expansion plugs. The B. atrophaeus species was selected due to its historical use as a biological indicator for ClO2 fumigations
Spore strips are thin cellulose pads that have been impregnated with a defined titer of bacterial spores. Each spore strip is encased in a Tyvek® pouch to allow for effective penetration of fumigant gas yet protect the strip from contamination by external sources. The BIs were obtained from SGM Biotech Inc., 10 Evergreen Drive, Suite E, Bozeman, Mont. (Lot #ACD-113e). All BIs were supplied from the same product batch in order to ensure uniformity in spore titer. Relevant production QA/QC data for the specific lot number have been kept on file for future reference.
All BIs were retrieved promptly following fumigation and sent to Sabre's Slingerlands, N.Y. laboratory facility for analysis. Each spore strip was aseptically placed in a growth media tube containing 15 milliliters of trypticase soy broth (BD Diagnostics product #221823, Lot # 7337460) and incubated at 37 degrees Centigrade. Spore strips were evaluated daily for the presence or absence of indicator organism growth for a total of seven days. […]

[3] = Olfactory observation of reduced-sulfur odors before and after treatment; conditions: Sabre personnel and independent observers; faint swimming pool like scent remained
Source text: Subjective Odor Elimination—Reduced-sulfur compounds odors are extremely noxious and can be detected by the human olfactory (i.e. odor) sense at levels which are at or below the detection limits of sophisticated analytical instruments. As such, the olfactory senses of both Sabre personnel and independent observers were employed both pre- and post-treatment to gauge the effectiveness of ClO2 in ridding the test structure of reduced-sulfur compound odors.
Odor levels emanating from within the structure were observed both pre- and post-treatment for the “putrid” characteristic commonly associated with reduced-sulfur gases such as hydrogen sulfide, carbonyl sulfide and carbon disulfide that have been definitively shown by an FDOH study as being released from Chinese wallboard.

SRBs and sulfur bacteria = assay: Chlorine dioxide fumigation of Chinese wallboard, SRB kill; assay type: cell-based; conditions: 65% RH and 65° F., enclosed structure
Procedure: Two square ([…]) samples of ⅝ inch Chinese wall board are collected from the structure that reported odor issues from different areas of the structure. […] The samples are split into four 25 cm×25 cm squares with the exposed ends of the sheetrock taped and painted with the same paint used within the structure. Two squares from each sample are placed into a chlorine dioxide fumigation chamber and fumigated with chlorine dioxide to a CT value of 9000 ppmv hours at 65% RH and 65° F. The other two squares from each sample are held in sealed bags as test blanks.
Upon completion of the test, each of the samples can be sampled as follows: Each core sample is homogenized in 10 ml of an anaerobic SRB broth, and 1 ml of the broth is transferred to 10 ml of broth in an anaerobic container and diluted serially out to a 104th dilution. The broth bottles are incubated at 25° C. for 21 days. Each day growth is recorded, and a lab blank negative control is performed on the initial broth.

[4] = after fumigation, visual
Procedure: The corrosivity potential of ClO2 on metals and bleaching potential of ClO2 on household carpeting were evaluated through pre- and post treatment visual observations made throughout the structure.
Corrosivity potential was assessed by observation of typical metal items present within the structure (e.g. screws, door hinges, HVAC system components, etc.). […] Each piece of copper was “scuffed” clean prior to fumigation to ensure that any changes in the metal due to ClO2 exposure would be readily recognizable. Photographs were taken of the copper pipe pieces before and after treatment to document visual observations made.

[5] = after fumigation, side-by-side with untreated carpet
Procedure: Bleaching potential of ClO2 was assessed by observation of carpet color and brightness throughout the structure both pre- and post-treatment. A piece of carpeting was also removed from a closet within the structure prior to fumigation and used for direct visual comparison with treated carpet following completion of the process.

SMILES: [O][Cl+][O-] [ClO2, chlorine dioxide]
- SRB growth after ClO2 treatment [1]: negative for SRB growth
- Surrogate test organism growth on BI spore strips after ClO2 treatment [2]: negative for surrogate test organism growth
- Reduced-sulfur gas odors after fumigation [3]: completely eliminated
- CT of fumigation that eliminates growth of SRBs and sulfur bacteria and oxidizes reactive sulfides (SRBs and sulfur bacteria): about 9000 ppmv hours
- Corrosive effect on common metal items in the structure [4]: no corrosive effect was visible
- Changes in scuffed copper pipe pieces ([4]; some pieces had a gold-like tint): no changes were observed
- Bleaching effect on carpet color and brightness [5]: no meaningful bleaching effect
